Experimental data taken from patent US4868303A, “Bis-dioxopiperazine derivatives” (Zenyaku Kogyo Kabushiki Kaisha, priority 1986, dated 1989).
Where a name gives a salt, the structure may show the parent alone.

Experiments:
[1] = system: P388 lymphocytic leukemia; assay: Growth inhibition of tumor cells of P388 lymphocytic leukemia in vitro; type: cell-based, mouse (CDF1); settings: Mus musculus, 48 hours at 37° C., read-out: 50% Inhibitory concentration of cell growth (IC50)
Method: (I) Growth Inhibition of Tumor Cells of P388 Lymphocytic Leukemia in Vitro:
Tumor cells were collected aseptically with capillary tube from ascites in CDF1 female mice transplanted intraperitoneally with 1×10^6cells of P388 lymphocytic leukemia 5 days before. Cell suspension was prepared at 5×10^4 cells/0.5 ml in a RPMI1640 medium supplemented with 10% fetal calf serum, kanamycin (0.1 mg/ml) and 2-hydroxyethyldisulfide (0.01 mM). Each test sample was dissolved or suspended in the medium at a concentration of 1×10^-1 -1×10^-5 mM.
A test tube with Molton stopper loosely involving 0.5 ml each of the cell suspension and the sample suspension was kept for 48 hours at 37° C. in an incubator supplied with air containing 5% carbon dioxide. […] The cells harvested therefrom was counted by using of a Coulter Counter and the inhibition of cell growth was calculated by the following formula:
Growth Inhibition (%)=(1-T/C)×100
T: number of cells in the culture containing test sample
C: number of cells in the culture of control

[2] = system: P388 lymphocytic leukemia; assay: Increase in life span on P388 lymphocytic leukemia tumor-transplanted mouse; type: in vivo, mouse (CDF1); settings: P388, ip, 24 h, intraperitoneal, day 1 and 5th day after transplantation, read-out: Rate of increase in life span (ILS)
Method: (III) Increase in Life Span on P388 Lymphocytic Leukemia Tumor-transplantedMouse:
The treated group to which the test sample was administered consisted of seven mice, while the control group consisted of ten mice. Six weeks old male mice (CDF1, 25±2 g of body weight) were employed as host animals.
Tumor cells (1.0×10^6) of P388 lymphocytic leukemia were transplanted intraperitoneally into each mouse. The treatment was effected one day after the transplantation and on 5th day by administering prescribed dose of each test sample intraperitoneally to the mice.
Antitumor activity of the test sample was evaluated by the rate of increase in life span (ILS) which was calculated with the following formula.
T': median survival time of treated mice
C': median survival time of control mice

Structure (SMILES) | IC50 [1] [nM] | also measured
CC(=O)OCN1C(=O)CN([C@@H](C)[C@@H](C)N2CC(=O)NC(=O)C2)CC1=O (relative stereo) [Sample 9, erythro-2-(4-acetoxymethyl-3,5-dioxopiperazin-1-yl)-3-(3,5-dioxopiperazin-1-yl)butane] | 74 | –
C[C@H]([C@H](C)N1CC(=O)N(COC(=O)c2ccccc2)C(=O)C1)N1CC(=O)NC(=O)C1 (relative stereo) [Sample 13, erythro-2-(4-benzoyloxymethyl-3,5-dioxopiperazin-1-yl)-3-(3,5-dioxopiperazin-1-yl)butane] | 38 | ILS at 2.2 mg/kg ([2]; daily dose 2.2 mg/kg): 118%
C[C@H]([C@H](C)N1CC(=O)N(COC(=O)OCc2ccc([N+](=O)[O-])cc2)C(=O)C1)N1CC(=O)NC(=O)C1 (relative stereo) [Sample 15, erythro-2-[4-(4-nitrobenzyloxycarbonyloxymethyl)-3,5-dioxopiperazin-1-yl]-3-(3,5-dioxopiperazin-1-yl)butane] | 240 | ILS at 2.6 mg/kg ([2]; daily dose 2.6 mg/kg): 177%
C[C@H]([C@H](C)N1CC(=O)N(COC(=O)Cc2ccccc2Cl)C(=O)C1)N1CC(=O)N(COC(=O)Cc2ccccc2Cl)C(=O)C1 [Sample 2, meso-2,3-bis[4-(2-chlorophenylacetoxymethyl)-3,5-dioxopiperazin-1-yl]butane] | 8.6 | ILS at 3.4 mg/kg ([2]; daily dose 3.4 mg/kg): 107%
C[C@H]([C@H](C)N1CC(=O)N(COC(=O)COc2ccc(Cl)cc2Cl)C(=O)C1)N1CC(=O)N(COC(=O)COc2ccc(Cl)cc2Cl)C(=O)C1 [Sample 3, meso-2,3-bis[4-(2,4-dichlorophenoxyacetoxymethyl)-3,5-dioxopiperazin-1-yl]butane] | 71 | –
CC(C(C)N1CC(=O)N(COC(=O)C=Cc2cccc(Cl)c2)C(=O)C1)N1CC(=O)N(COC(=O)C=Cc2cccc(Cl)c2)C(=O)C1 (stereo not drawn) [Sample 4, meso-2,3-bis[4-(3-chlorocinnamoyloxymethyl)-3,5-dioxopiperazin-1-yl]butane] | 240 | –
C[C@H]([C@H](C)N1CC(=O)N(COC(=O)[C@H](NC(=O)OC(C)(C)C)c2ccccc2)C(=O)C1)N1CC(=O)N(COC(=O)[C@H](NC(=O)OC(C)(C)C)c2ccccc2)C(=O)C1 [Sample 5, meso-2,3-bis[4-[(R)-2-N-tert-butoxycarbonylamino-2-phenylacetoxymethyl]-3,5-dioxopiperazin-1-yl]butane] | 32 | –
C[C@H]([C@H](C)N1CC(=O)N(COC(=O)[C@H](N)c2ccccc2)C(=O)C1)N1CC(=O)N(COC(=O)[C@H](N)c2ccccc2)C(=O)C1 [Sample 6, meso-2,3-bis[4-[(R)-2-amino-2-phenylacetoxymethyl]-3,5-dioxopiperazin-1-yl]butane trifluoroacetate] | 52 | –
C[C@H]([C@H](C)N1CC(=O)N(COC(=O)OCc2ccc([N+](=O)[O-])cc2)C(=O)C1)N1CC(=O)N(COC(=O)OCc2ccc([N+](=O)[O-])cc2)C(=O)C1 [Sample 8, meso-2,3-bis[4-(4-nitrobenzyloxycarbonyloxymethyl)-3,5-dioxopiperazin-1-yl]butane] | 150 | –
C[C@H]([C@H](C)N1CC(=O)N(COC(=O)OCc2ccccc2)C(=O)C1)N1CC(=O)N(COC(=O)OCc2ccccc2)C(=O)C1 [Sample 17, meso-2,3-bis(4-benzyloxycarbonyloxymethyl-3,5-dioxopiperazin-1-yl)butane] | 56 | ILS at 3.2 mg/kg ([2]; daily dose 3.2 mg/kg): 179%
